Values of other authors as cited in US20220378880A1, “PHARMACEUTICAL COMPOSITIONS OF GHRH ANALOGS AND USES THEREOF” (Theratechnologies Inc., priority 2019, published 2022).

[1] = healthy subjects, single SC 2 mg dose

CC/C=C/CC(=O)N[C@@H](Cc1ccc(O)cc1)C(=O)N[C@@H](C)C(=O)N[C@@H](CC(=O)O)C(=O)N[C@@H](C)C(=O)N[C@H](C(=O)N[C@@H](Cc1ccccc1)C(=O)N[C@H](C(=O)N[C@@H](CC(N)=O)C(=O)N[C@@H](CO)C(=O)N[C@@H](Cc1ccc(O)cc1)C(=O)N[C@@H](CCCNC(=N)N)C(=O)N[C@@H](CCCCN)C(=O)N[C@H](C(=O)N[C@@H](CC(C)C)C(=O)NCC(=O)N[C@@H](CCC(N)=O)C(=O)N[C@@H](CC(C)C)C(=O)N[C@@H](CO)C(=O)N[C@@H](C)C(=O)N[C@@H](CCCNC(=N)N)C(=O)N[C@@H](CCCCN)C(=O)N[C@@H](CC(C)C)C(=O)N[C@@H](CC(C)C)C(=O)N[C@@H](CCC(N)=O)C(=O)N[C@@H](CC(=O)O)C(=O)N[C@H](C(=O)N[C@@H](CCSC)C(=O)N[C@@H](CO)C(=O)N[C@@H](CCCNC(=N)N)C(=O)N[C@@H](CCC(N)=O)C(=O)N[C@@H](CCC(N)=O)C(=O)NCC(=O)N[C@@H](CCC(=O)O)C(=O)N[C@@H](CO)C(=O)N[C@@H](CC(N)=O)C(=O)N[C@@H](CCC(N)=O)C(=O)N[C@@H](CCC(=O)O)C(=O)N[C@@H](CCCNC(=N)N)C(=O)NCC(=O)N[C@@H](C)C(=O)N[C@@H](CCCNC(=N)N)C(=O)N[C@@H](C)C(=O)N[C@@H](CCCNC(=N)N)C(=O)N[C@@H](CC(C)C)C(N)=O)[C@@H](C)CC)C(C)C)[C@@H](C)O)[C@@H](C)CC [tesamorelin, trans-3-hexenoyl-GHRH(1-44)-NH2]
Absolute bioavailability (healthy adult subjects, SC 2 mg dose): less than 4%
Extent of absorption, mean (CV) [1]: 634.6 (72.4) pg·h/mL
Peak tesamorelin concentration (Cmax), mean (CV) [1]: 2874.6 (43.9) pg/mL
Thalf (expected) (single SC 2 mg dose): 0.4 h
Tmax (expected) (single SC 2 mg dose, median): 9 min
